From patent publication US20240300886A1, “ARYLCYCLOHEXYLAMINE DERIVATIVES AND THEIR USE IN THE TREATMENT OF PSYCHIATRIC DISORDERS” (GILGAMESH PHARMACEUTICALS, INC., priority 2021, published 2024)
Where two headings read alike, the source gives them in different places.

Experiments:
[1] = Metabolic stability in rat liver microsomes (RLM); format: in vitro ADME, Sprague Dawley rats
Experimental: (§1) RLM Stability. Pooled RLM from male Sprague Dawley rats (XenoTech R1000) were used. Microsomal incubations were carried out in multi-well plates. Liver microsomal incubation medium consisted of PBS (100 mM, pH 7.4), MgCl2 (1 mM), and NADPH (1 mM), with 0.50 mg of liver microsomal protein per mL. Control incubations were performed by replacing the NADPH-cofactor system with PBS. Test compounds (1 μM, final solvent concentration 1.0%) were incubated with microsomes at 37° C. with constant shaking. Six time points over 60 minutes were analyzed, with 60 μL aliquots of the reaction mixture being drawn at each time point. The reaction aliquots were stopped by adding 180 μL of cold (4° C.) acetonitrile containing 200 ng/mL tolbutamide and 200 ng/mL labetalol as internal standards (IS), followed by shaking for 10 minutes, and then protein sedimentation by centrifugation at 4,000 rpm for 20 minutes at 4° C. Supernatant samples (80 μL) were diluted with water (240 μL) and analyzed for parent compound remaining using a fit-for-purpose liquid chromatography-tandem mass spectrometry (LC-MS/MS) method.
(§2) Data Analysis. The elimination constant (kel), half-life (t1/2) and intrinsic clearance (Clint) were determined in a plot of […] versus time, using linear regression analysis.

[2] = Metabolic stability in human liver microsomes (HLM); format: in vitro ADME; settings: 0.50 mg protein/mL, NADPH; for Clint: 1 μM compound; for half-life at 1 μM: both sexes, human, pooled human liver microsomes, pH 7.4, 1 μM compound
Experimental: HLM Stability. Pooled HLM from adult male and female donors (Corning 452117) were used. Microsomal incubations were carried out in multi-well plates. Liver microsomal incubation medium consisted of PBS (100 mM, pH 7.4), MgCl2 (1 mM), and NADPH ([…]), with 0.50 mg of liver microsomal protein per mL. Control incubations were performed by replacing the NADPH-cofactor system with PBS. Test compounds (1 μM, final solvent concentration 1.0%) were incubated with microsomes at 37° C. with constant shaking, Six time points over 60 minutes were analyzed, with 60 μL aliquots of the reaction mixture being drawn at each time point. The reaction aliquots were stopped by adding 180 μL of cold (4° C.) acetonitrile containing 200 ng/mL tolbutamide and 200 ng/mL labetalol as internal standards (IS), followed by shaking for 10 minutes, and then protein sedimentation by centrifugation at 4,000 rpm for 20 minutes at 4° C. Supernatant samples (80 μL) were diluted with water (240 μL) and analyzed for parent compound remaining using a fit-for-purpose liquid chromatography-tandem mass spectrometry (LC-MS/MS) method.
as §2

[3] = Metabolic stability in mouse liver microsomes (MLM); format: in vitro ADME, CD-1 mice; settings: male, CD-1, mouse, pooled mouse liver microsomes, pH 7.4, 1 μM compound, 0.50 mg protein/mL, NADPH
Experimental: as §1, with “MLM” for “RLM”, “CD-1 mice” for “Sprague Dawley rats”, “M1000)” for “R1000)”
Data Analysis. The elimination constant (kel), half-life (t1/2) and intrinsic clearance (Clint) were determined in a plot of ln(AUC) versus […], using linear regression analysis.

[4] = Comparative metabolism/PK of 2R and deuterated 7R in rats after oral administration; format: in vivo, Sprague Dawley rats; settings: for concentration at 0.083 h / concentration at 0.25 h / concentration at 0.5 h / concentration at 1 h / concentration at 2 h / concentration at 4 h: oral; for concentration at 0.083 h: 0.083 h after 10 mg/kg po of 2R or 7R; for concentration at 0.25 h: 0.25 h after 10 mg/kg po of 2R or 7R; for concentration at 0.5 h: 0.5 h after 10 mg/kg po of 2R or 7R; for concentration at 1 h: 1 h after 10 mg/kg po of 2R or 7R; for concentration at 2 h: 2 h after 10 mg/kg po of 2R or 7R; for concentration at 4 h: 4 h after 10 mg/kg po of 2R or 7R
Experimental: Animals. Male Sprague Dawley rats were used in these studies. Animals were randomly assigned to treatment groups and were fasted for 4 h before dosing.
Drugs. Test compounds 2R and 7R were dissolved in a vehicle consisting of normal saline. They were then administered orally (po) at a dose of 10 mg/kg (calculated based on freebase), and at a volume of 5 mL/kg body weight.
Sample Collection and Bioanalysis. Blood samples (approximately 60 μL) were collected under light isoflurane anesthesia (Surgivet®) from the retro orbital plexus at 0.08, 0.25, 0.5, 1, 2, 4, 8, and 24 h (4 animals per time point). Immediately after blood collection, plasma was harvested by centrifugation at 4,000 rpm for 10 min at 4° C. and samples were stored at −70±10° C. until bioanalysis. Following blood collection, animals were immediately sacrificed, the abdominal vena-cava was cut open, and the whole body was perfused from the heart using 10 mL of normal saline, and brain samples were collected from all animals. After isolation, brain samples were rinsed three times in ice-cold normal saline (for 5-10 seconds/rinse using ˜5-10 mL normal saline in disposable petri dish for each rinse) and dried on blotting paper. Brain samples were homogenized using ice-cold phosphate-buffered saline (pH 7.4) Total homogenate volume was three times the tissue weight. All homogenates were stored at −70±10° C. until bioanalysis. For bioanalysis, 25 μL aliquots of plasma/brain study samples or spiked plasma/brain calibration standards were added to individual pre-labeled micro-centrifuge tubes followed by 100 μL of an internal standard solution (glipizide, 500 ng/mL in acetonitrile) except for blanks, where 100 μL of acetonitrile was added. Samples were vortexed for 5 minutes and then centrifuged for 10 minutes at 4,000 rpm at 4° C. Following centrifugation, 100 μL of each clear supernatant was transferred to a 96 well plate and analyzed with a fit-for-purpose LC-MS/MS method, with authentic samples of each analyte used for calibration and identification. Concentrations of parent compound (2R or 7R) and metabolite 1R were determined in all samples.
Data Analysis. Pharmacokinetic parameters were estimated using the non-compartmental analysis tool of Phoenix® WinNonlin software (Ver 8.0).

[5] = male, Sprague Dawley, rat, pooled rat liver microsomes, pH 7.4, 1 μM compound, 0.50 mg protein/mL, NADPH
[6] = male, Sprague Dawley, rat, brain, 10 mg/kg, rat brain, read-out: Mean brain concentration
[7] = male, Sprague Dawley, rat, plasma, 10 mg/kg, rat plasma, read-out: Mean plasma concentration
[8] = rat brain after 10 mg/kg po of 2R or 7R, parent or metabolite 1R as labelled

For `NC1(c2ccc(F)cc2)CCCCC1=O` (racemic) [Compound 1, 2-amino-2-(4-fluorophenyl)cyclohexan-1-one], the “metabolic stability in RLM (in words)” value [1] was “much greater stability”, the half-life at 1 μM [1, 5] was greater than 2.42 h and the microsomal CLint at 1 μM [1, 5] was less than 9.6 µL/min/mg. It also gave a Clint [2] of less than 9.6 μL/min/m, a half-life at 1 μM [2] greater than 2.42 h and a half-life at 1 μM [3] greater than 2.42 h. The microsomal CLint at 1 μM [3] was less than 9.6 µL/min/mg.

With `CNC1(c2ccc(F)cc2)CCCCC1=O` (racemic) [Compound 2] the “metabolic stability in RLM (in words)” value [1] was “much greater stability”, the half-life at 1 μM [1, 5] was 1.18 h and the Clint [2] was less than 9.6 μL/min/m. For the same molecule, the half-life at 1 μM [2] was greater than 2.42 h and the half-life at 1 μM [3] was 1.68 h.

With `NC1(c2cccc(F)c2)CCCCC1=O` (racemic) [Compound 3, 2-amino-2-(3-fluorophenyl)cyclohexan-1-one] the “metabolic stability in RLM (in words)” value [1] was “much greater stability”.

`[2H]C([2H])([2H])N[C@@]1(c2ccc(F)cc2)CCCCC1=O` [Compound 7R] gave a concentration at 0.083 h [4, 6] of 98 ng/g, a concentration at 0.25 h [4, 6] of 2090 ng/g and a concentration at 0.5 h [4, 6] of 2200 ng/g. For the same molecule, the concentration at 1 h [4, 6] was 1770 ng/g, the concentration at 2 h [4, 6] was 1420 ng/g and the concentration at 4 h [4, 6] was 236 ng/g. It also gave a half-life ([4]; male, Sprague Dawley, rat, brain, po, 10 mg/kg, rat brain after 10 mg/kg po of 2R or 7R, parent or metabolite 1R as labelled, read-out: t1/2 (brain)) of 1.12 h, a concentration at 0.083 h [4, 7] of 0.065 µg/mL and a concentration at 0.25 h [4, 7] of 0.502 µg/mL. It also gave a concentration at 0.5 h [4, 7] of 0.799 µg/mL, a concentration at 1 h [4, 7] of 0.564 µg/mL and a concentration at 2 h [4, 7] of 0.396 µg/mL. The concentration at 4 h [4, 7] was 0.068 µg/mL, the Cmax ([4]; male, Sprague Dawley, rat, plasma, po, 10 mg/kg, rat plasma after 10 mg/kg po of 2R or 7R, parent or metabolite 1R as labelled) was 0.799 µg/mL and the AUC(0-t) ([4]; male, Sprague Dawley, rat, plasma, po, 10 mg/kg, rat plasma after 10 mg/kg po of 2R or 7R, parent or metabolite 1R as labelled, read-out: AUC0-last (plasma) (converted)) was 1.65 µg·h/mL. For the same molecule, the half-life ([4]; male, Sprague Dawley, rat, plasma, po, 10 mg/kg, rat plasma after 10 mg/kg po of 2R or 7R, parent or metabolite 1R as labelled, read-out: t1/2 (plasma)) was 1.08 h, the “AUC0-last (brain)” value [4, 8] was 330347 ng·min/g and the “Cmax (brain)” value [4, 8] was 2197 ng/g. The “exposure (AUC) in plasma and brain compared to non-deuterated 2R” value ([4]; rats, 10 mg/kg po) was “greater exposure”.

`Cc1ccc(C2(N)CCCCC2=O)cc1` (centres unmarked) [Compound 10, 2-amino-2-(p-tolyl)cyclohexan-1-one] gave a half-life at 1 μM [1, 5] of 0.06 h.

For `CNC1(c2ccc(C)cc2)CCCCC1=O` (centres unmarked) [Compound 11, 2-(methylamino)-2-(p-tolyl)cyclohexan-1-one], the half-life at 1 μM [1, 5] was 0.055 h.

In the case of `Cc1cccc(C2(N)CCCCC2=O)c1` (centres unmarked) [Compound 12, 2-amino-2-(m-tolyl)cyclohexan-1-one], the half-life at 1 μM [1, 5] is reported as 0.12 h.
